Structures can show the parent of a compound that is named as a salt. Where two headings read alike, the source gives them in different places.
Tests used:
β-lactamase Tem-1 = target: T1, β-lactamase Tem-1 (Escherichia coli, UniProt P62593); assay: Inhibitory activity for β-lactamases (nitrocefin hydrolysis); assay type: biochemical, E. coli 250HT21
T1 construct: The β-lactamases are isolated from bacterial strains resistant to penicillins and to cephalosporins; endogenous in cells; host or cells: E. coli 250HT21, soluble fraction of French-press lysate
Description: (§1) II/Inhibitory Activity for β-Lactamases
(§2) A. Preparation of the β-Lactamases Tem-1 and P99
(§3) The β-lactamases are isolated from bacterial strains resistant to penicillins and to cephalosporins (Tem1 and P99 are produced respectively by E. coli 250HT21 and E. Cloacae 293HT6).
(§4) The bacteria are cultured in 37 g/l brain-heart broth (DIFCO) at 37° C. They are harvested in the exponential phase, cooled and centrifuged. The bacterial pellets are taken up in 50 mM sodium phosphate buffer, pH 7.0, and are again centrifuged. The bacteria are taken up in two volumes of the same buffer and lyzed using a French press maintained at 4° C. After centrifuging for 1 h at 100 000 g at 4° C., the supernatants comprising the soluble fraction of the bacterial extracts are recovered and frozen at −80° C.
(§5) B. Determination of the β-Lactamase Activity
(§6) The method uses nitrocefin (Oxoid), a chromogenic cephalosporin, the product of hydrolysis by β-lactamases of which is red and absorbed at 485 nm, as substrate. The β-lactamase activity is determined kinetically by the measurement, on a plate spectrophotometer (Spectra Max Plus from Molecular Devices), of the variation in absorbance at 485 nm resulting from the hydrolysis of the substrate. The experiments are carried out at 37° C. The amount of enzyme was standardized and the measurements are carried out at the initial rate.
(§7) C. Determination of the Inhibitory Activity for β-Lactamases
(§8) Two measurements are carried out, without preincubation and with preincubation of the enzyme and of the inhibitor (5 min), in order to test the irreversibility of the reaction. The products are tested at 6 or 8 concentrations in duplicate. The reaction mixture comprises 100 μM nitrocefin and 50 mM sodium phosphate buffer, pH 7.0.
(§9) D. Calculations of the IC50 Values
(§10) The rates of hydrolysis are measured with and without inhibitor. The concentration of inhibitor which inhibits by 50% the reaction for the hydrolysis of nitrocefin by the enzyme is determined (IC50). The processing of the data is carried out using GraFit software (Erathycus Software).

β-lactamase P99 = target: T2, β-lactamase P99 (Enterobacter cloacae, UniProt P05364); assay: as above; assay type: biochemical
T2 construct: The β-lactamases are isolated from bacterial strains resistant to penicillins and to cephalosporins; endogenous in cells; host or cells: Enterobacter cloacae 293HT6, soluble fraction of French-press lysate
Description: as §1, §2, §3, §4, §5, §6, §7, §8, §9, §10

[1] = after 5 min of preincubation with the enzyme, 100 μM nitrocefin, 50 mM sodium phosphate buffer pH 7.0, 37° C., read-out: IC50 nM/TEM1
[2] = after 5 min of preincubation with the enzyme, 100 μM nitrocefin, 50 mM sodium phosphate buffer pH 7.0, 37° C., read-out: IC50 nM/P99

T2 sequence (P05364 21-381): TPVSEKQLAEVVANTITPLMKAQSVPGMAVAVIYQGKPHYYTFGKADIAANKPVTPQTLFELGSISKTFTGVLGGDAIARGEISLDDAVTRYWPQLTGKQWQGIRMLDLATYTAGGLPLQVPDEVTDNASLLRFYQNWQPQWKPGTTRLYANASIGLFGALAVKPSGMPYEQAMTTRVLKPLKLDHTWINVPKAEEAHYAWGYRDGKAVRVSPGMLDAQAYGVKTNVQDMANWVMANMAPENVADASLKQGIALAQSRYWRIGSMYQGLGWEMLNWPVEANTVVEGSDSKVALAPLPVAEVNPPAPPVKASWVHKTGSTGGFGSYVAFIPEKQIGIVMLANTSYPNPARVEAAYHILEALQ
T1 sequence (P62593 24-286 limits assumed): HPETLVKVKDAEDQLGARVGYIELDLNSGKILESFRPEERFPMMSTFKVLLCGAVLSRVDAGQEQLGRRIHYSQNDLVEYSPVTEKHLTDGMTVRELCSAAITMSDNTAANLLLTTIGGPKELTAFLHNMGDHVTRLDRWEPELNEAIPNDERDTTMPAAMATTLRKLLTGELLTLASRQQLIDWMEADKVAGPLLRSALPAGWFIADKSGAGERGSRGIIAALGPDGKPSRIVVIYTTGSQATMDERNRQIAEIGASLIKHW

| SMILES | IC50 (β-lactamase Tem-1) | IC50 (β-lactamase P99) | IC50 (β-lactamase Tem-1; [1]) | IC50 (β-lactamase P99; [2]) |
| --- | --- | --- | --- | --- |
| CS(=O)(=O)N1c2ccccc2C2CN1C(=O)N2OCC(=O)O (stereo not shown) [Example 5, N-(1-Methylethyl)-2-propanaminium salt of [[1,5-dihydro-1-(methylsulfonyl)-3-oxo-2,5-methano-2H-1,2,4-benzotriazepin-4(3H)-yl]oxy]acetic acid] | 570000 nM | 460000 nM |  |  |
| C=CCON1C(=O)N2CC1c1ccccc1N2C(=O)NS(=O)(=O)c1ccccc1 (stereo not shown) [Example 15, 4,5-Dihydro-3-oxo-N-(phenylsulfonyl)-4-(2-propenyloxy)-2,5-methano-2H-1,2,4-benzotriazepin-1(3H)-carboxamide] |  |  | 450000 nM | 110000 nM |
| O=C(O)CON1C(=O)N2CC1c1ccccc1N2C(=O)NC(=O)c1ccccc1 (stereo not shown) [Example 7, N-(1-Methylethyl)-2-propanaminium salt of [[1-[(benzoylamino)carbonyl]-1,5-dihydro-3-oxo-2,5-methano-2H-1,2,4-benzotriazepin-4(3H)-yl]oxy]acetic acid] | 110000 nM | 63000 nM |  |  |
| O=C(O)CON1C(=O)N2CC1c1ccccc1N2 (stereo not shown) [Example 11, N-(1-Methylethyl)-2-propanaminium salt of [(1,5-dihydro-3-oxo-2,5-methano-2H-1,2,4-benzotriazepin-4(3H)-yl)oxy]acetate acid] | 14000 nM | 15000 nM |  |  |
| CCOC(=O)CN1c2ccccc2C2CN1C(=O)N2OS(=O)(=O)O (stereo not shown) [Example 27, Sodium Salt of Ethyl 4,5-dihydro-3-oxo-4-(sulfoxy)-2,5-methano-2-H-1,2,4-benzotriazepine-1(3H)-acetate] |  |  | 7500 nM | 530 nM |
| CN1c2ccccc2C2CN1C(=O)N2OS(=O)(=O)O (stereo not shown) [Example 28, Sodium salt of 4,5-dihydro-1-methyl-4-(sulfooxy)-2,5-methano-2H-1,2,4-benzotriazepin-3(1H)-one] |  |  | 12000 nM | 37000 nM |
| O=C(O)CON1C(=O)N2CC1c1ccccc1N2C(=O)NS(=O)(=O)c1ccccc1 (stereo not shown) [Example 9, Bis[N-(1-methylethyl)-2-propanaminium] salt of [[1,5-dihydro-3-oxo-1-[[(phenylsulfonyl)amino]carbonyl]-2,5-methano-2H-1,2,4-benzotriazepin-4(3H)-yl]oxy]acetic acid] | 160000 nM | 180000 nM |  |  |
| C=CCON1C(=O)N2CC1c1ccccc1N2Cc1cccnc1 (stereo not shown) [Example 14, 4,5-Dihydro-4-(2-propenyloxy)-1-(3-pyridinylmethyl)-2,5-methano-2H-1,2,4-benzotriazepin-3(1H)-one] |  |  | 26000 nM | 17000 nM |

From patent US7365071B2, “Heterocyclic compounds, preparation process and intermediates, and use as medicaments, in particular as β-lactamase inhibitors and antibacterials” (priority 2002, dated 2008)
